Test: dissolution properties of the solid form
Type: physicochemical
Details: conditions not given

COc1ccccc1Oc1c(NS(=O)(=O)c2ccc(C(C)(C)C)cc2)nc(-c2ncccn2)nc1OCCO [amorphous form, bosentan]
dissolution properties: advantageous dissolution properties
